# Measurements: ChEMBL document CHEMBL1201862, “PubChem BioAssay data set” (2004)
#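 Briefly, cells in 96-well plates were exposed to five compound concentrations for 48 h, and endpoints were estimated by linear interpolation. At the GI50, growth is halved.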 Calls of active or inactive are those of the source. No stated cut-off is given here; in the data, active = GI50 up to about 1.1 µM and inactive = higher.
# What was measured:
# Assay in all cases: DTP human tumour cell line panel, 48 h
# [1] = system: 786-0
# [2] = system: SK-MEL-2
# [3] = system: SNB-75
# [4] = system: U-251
# [5] = system: SF-539
# [6] = system: HCC 2998
# [7] = system: OVCAR-5
# [8] = system: OVCAR-3
# [9] = system: CCRF-CEM
# [10] = system: RXF 393
# [11] = system: NCI-H522
# [12] = system: SW-620
# [13] = system: NCI-H460
# [14] = system: RPMI-8226
# [15] = system: CAKI-1
# [16] = system: IGROV-1
# [17] = system: HT-29
# [18] = system: SN12C
# [19] = system: Malme-3M
# [20] = system: SF-268
# [21] = system: COLO 205
# [22] = system: HL-60
# [23] = system: DMS-273
# [24] = system: M19-MEL
# [25] = system: SF-295
# [26] = system: KM12
# [27] = system: KM-20L2
# [28] = system: MOLT-4
# [29] = system: EKVX
# [30] = system: TK-10
# [31] = system: A549
# [32] = system: DLD-1
# [33] = system: OVCAR-8
# [34] = system: SK-MEL-5
# [35] = system: LXFL 529
# [36] = system: LOX IMVI
# [37] = system: M14
# [38] = system: K562
# [39] = system: UACC-62
# [40] = system: NCI-H23
# [41] = system: HCT-15
# [42] = system: SNB-19
# [43] = system: UACC-257
# [44] = system: SK-MEL-28
# [45] = system: HOP-62
# [46] = system: UO-31
# [47] = system: SK-OV-3
# [48] = system: ACHN
# [49] = system: HOP-92
# [50] = system: OVCAR-4
# [51] = system: HCT-116
# [52] = system: SNB-78
# [53] = system: BT-549
# [54] = system: MDA-MB-231
# [55] = system: DU-145
# [56] = system: MDA-MB-435
# [57] = system: PC-3
# [58] = system: MCF7
# [59] = system: A498
# [60] = system: MDA-N
# [61] = system: T47D
# [62] = system: SR
# [63] = system: NCI/ADR-RES
# [64] = system: NCI-H226
# [65] = system: Hs-578T
structure (smiles),measurement,setting,value
COC(=O)C1=C(C(=O)OC)C2=S(SC3=C2CCCC3)S1 (stereo not given),GI50,[1],4.11 µM (inactive)
same,GI50,[2],23.1 µM (inactive)
same,GI50,[3],12.1 µM (inactive)
same,GI50,[4],19.6 µM (inactive)
same,GI50,[5],25.1 µM (inactive)
same,GI50,[6],> 100 µM (inactive)
same,GI50,[7],27.4 µM (inactive)
same,GI50,[8],16.4 µM (inactive)
same,GI50,[9],2.98 µM (inactive)
same,GI50,[10],13.3 µM (inactive)
same,GI50,[11],2.2 µM (inactive)
same,GI50,[12],0.467 µM (active)
same,GI50,[13],28.1 µM (inactive)
same,GI50,[14],3.26 µM (inactive)
same,GI50,[15],20 µM (inactive)
same,GI50,[16],85.7 µM (inactive)
same,GI50,[17],18.7 µM (inactive)
same,GI50,[18],25.5 µM (inactive)
same,GI50,[19],20.1 µM (inactive)
same,GI50,[20],37.6 µM (inactive)
same,GI50,[21],23.4 µM (inactive)
same,GI50,[22],9.48 µM (inactive)
same,GI50,[23],13.1 µM (inactive)
same,GI50,[24],26.5 µM (inactive)
same,GI50,[25],46.1 µM (inactive)
same,GI50,[26],20.8 µM (inactive)
same,GI50,[27],24.6 µM (inactive)
same,GI50,[28],12 µM (inactive)
same,GI50,[29],> 100 µM (inactive)
same,GI50,[30],30.1 µM (inactive)
same,GI50,[31],36.1 µM (inactive)
same,GI50,[32],24 µM (inactive)
same,GI50,[33],12.9 µM (inactive)
same,GI50,[34],0.378 µM (active)
same,GI50,[35],5.05 µM (inactive)
same,GI50,[36],2.79 µM (inactive)
same,GI50,[37],24.8 µM (inactive)
same,GI50,[38],4.35 µM (inactive)
same,GI50,[39],26 µM (inactive)
same,GI50,[40],24.1 µM (inactive)
same,GI50,[41],13.3 µM
same,GI50,[42],> 100 µM (inactive)
same,GI50,[43],37.2 µM (inactive)
same,GI50,[44],29.7 µM (inactive)
same,GI50,[45],> 100 µM (inactive)
same,GI50,[46],68.1 µM (inactive)
same,GI50,[47],> 100 µM (inactive)
same,GI50,[48],28.1 µM (inactive)
same,GI50,[49],6.05 µM (inactive)
same,GI50,[50],19 µM (inactive)
Cc1ccc(C(=O)Nc2ccccc2)cc1/N=N/N(C)C,GI50,[1],21 µM (inactive)
same,GI50,[2],> 100 µM (inactive)
same,GI50,[4],> 100 µM (inactive)
same,GI50,[5],> 100 µM (inactive)
same,GI50,[6],> 100 µM (inactive)
same,GI50,[8],> 100 µM (inactive)
same,GI50,[51],> 100 µM (inactive)
same,GI50,[11],35.2 µM (inactive)
same,GI50,[12],> 100 µM (inactive)
same,GI50,[13],> 100 µM (inactive)
same,GI50,[15],> 100 µM (inactive)
same,GI50,[16],> 100 µM (inactive)
same,GI50,[17],> 100 µM (inactive)
same,GI50,[18],> 100 µM (inactive)
same,GI50,[20],> 100 µM (inactive)
same,GI50,[23],> 100 µM (inactive)
same,GI50,[24],> 100 µM (inactive)
same,GI50,[25],> 100 µM (inactive)
same,GI50,[26],> 100 µM (inactive)
same,GI50,[27],> 10 µM (inactive)
same,GI50,[29],> 100 µM (inactive)
same,GI50,[30],> 100 µM (inactive)
same,GI50,[31],> 100 µM (inactive)
same,GI50,[32],> 100 µM (inactive)
same,GI50,[52],> 100 µM (inactive)
same,GI50,[33],> 100 µM (inactive)
same,GI50,[34],> 100 µM (inactive)
same,GI50,[35],> 100 µM (inactive)
same,GI50,[36],> 100 µM (inactive)
same,GI50,[37],> 100 µM (inactive)
same,GI50,[39],> 100 µM (inactive)
same,GI50,[40],> 100 µM (inactive)
same,GI50,[41],> 100 µM
same,GI50,[42],> 100 µM (inactive)
same,GI50,[43],> 100 µM (inactive)
same,GI50,[44],> 100 µM (inactive)
same,GI50,[45],> 100 µM (inactive)
same,GI50,[46],> 100 µM (inactive)
same,GI50,[48],> 100 µM (inactive)
same,GI50,[49],> 100 µM (inactive)
same,GI50,[50],> 100 µM (inactive)
S=C=NCc1ccccc1 [BENZYL ISOTHIOCYANATE],GI50,[1],0.422 µM (active)
same,GI50,[2],6.35 µM (inactive)
same,GI50,[3],4.27 µM (inactive)
same,GI50,[4],3.07 µM (inactive)
same,GI50,[5],1.82 µM (inactive)
same,GI50,[6],8.28 µM (inactive)
same,GI50,[7],10.9 µM (inactive)
same,GI50,[53],2.32 µM (inactive)
same,GI50,[8],2.75 µM (inactive)
same,GI50,[9],0.454 µM (active)
same,GI50,[51],0.604 µM (active)
same,GI50,[10],1.62 µM (inactive)
same,GI50,[54],1.8 µM (inactive)
same,GI50,[11],1.22 µM (inactive)
same,GI50,[55],4.13 µM (inactive)
same,GI50,[56],2.16 µM (inactive)
same,GI50,[12],2.35 µM (inactive)
same,GI50,[13],6.27 µM (inactive)
same,GI50,[14],0.456 µM (active)
same,GI50,[57],4.1 µM (inactive)
same,GI50,[58],3.23 µM (inactive)
same,GI50,[15],1.85 µM (inactive)
same,GI50,[16],2.51 µM (inactive)
same,GI50,[59],4.13 µM (inactive)
same,GI50,[17],2.47 µM (inactive)
same,GI50,[18],3.7 µM (inactive)
same,GI50,[19],3.1 µM (inactive)
same,GI50,[60],1.18 µM (inactive)
same,GI50,[20],3.35 µM (inactive)
same,GI50,[21],1.51 µM (inactive)
same,GI50,[22],1.86 µM (inactive)
same,GI50,[61],10.4 µM (inactive)
same,GI50,[25],4.82 µM (inactive)
same,GI50,[26],0.895 µM (active)
same,GI50,[28],1.31 µM (inactive)
same,GI50,[62],0.794 µM (active)
same,GI50,[29],14.6 µM (inactive)
same,GI50,[30],4.37 µM (inactive)
same,GI50,[31],4.49 µM (inactive)
same,GI50,[33],2.62 µM (inactive)
same,GI50,[34],2.81 µM (inactive)
same,GI50,[36],0.796 µM (active)
same,GI50,[37],1.67 µM (inactive)
same,GI50,[38],0.697 µM (active)
same,GI50,[63],3.43 µM (inactive)
same,GI50,[39],3.32 µM (inactive)
same,GI50,[40],3.81 µM (inactive)
same,GI50,[64],10.1 µM (inactive)
same,GI50,[41],3.36 µM
same,GI50,[42],4.71 µM (inactive)
same,GI50,[43],3.15 µM (inactive)
same,GI50,[44],3.08 µM (inactive)
same,GI50,[45],3.05 µM (inactive)
same,GI50,[65],7.08 µM (inactive)
same,GI50,[46],2.72 µM (inactive)
same,GI50,[47],11 µM (inactive)
same,GI50,[48],3.99 µM (inactive)
same,GI50,[49],5.77 µM (inactive)
same,GI50,[50],3.8 µM (inactive)
